Test results from US20250313563A1, “GLYCOGEN SYNTHASE KINASE 3 INHIBITORS AND USES THEREOF” (The Broad Institute, Inc., priority 2022, published 2025).
Where two headings read alike, the source gives them in different places.

Legend:
[1] = target: GSK3b (GST-full length GSK3b) (Homo sapiens (Human), UniProt P49841); experiment: GSK3b TR-FRET kinase assay; format: biochemical; conditions: 1 nM GSK3b, 2 μM ATP, 30 minute preincubation, Table 16, read-out: GSK3-B TR-FRET BIOCHEMICAL (TR-FRET)
How it was run: (§1)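 Compound was preincubated 30 min with 1 nM GST-GSK3 enzyme. Reaction ran 100 min at ambient temperature in Tris pH 7.5/MgCl2 with 200 nM biotinylated pS645-glycogen synthase 631-650 peptide and ATP (4 μM GSK3α, 2 μM GSK3b, or 1 mM). The EDTA-stopped reaction was read by TR-FRET (Tb-anti-pSer641/streptavidin-d2), and IC50s were fitted.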

[2] = target: GSK3α (GST-full length GSK3α) (Homo sapiens (Human), UniProt P49840); experiment: GSK3α TR-FRET kinase assay; format: biochemical; conditions: 1 nM GSK3α, 4 μM ATP, 30 minute preincubation, Table 16, read-out: GSK3-A TR-FRET BIOCHEMICAL (TR-FRET)
GSK3α (GST-full length GSK3α), sequence (P49840 whole entry): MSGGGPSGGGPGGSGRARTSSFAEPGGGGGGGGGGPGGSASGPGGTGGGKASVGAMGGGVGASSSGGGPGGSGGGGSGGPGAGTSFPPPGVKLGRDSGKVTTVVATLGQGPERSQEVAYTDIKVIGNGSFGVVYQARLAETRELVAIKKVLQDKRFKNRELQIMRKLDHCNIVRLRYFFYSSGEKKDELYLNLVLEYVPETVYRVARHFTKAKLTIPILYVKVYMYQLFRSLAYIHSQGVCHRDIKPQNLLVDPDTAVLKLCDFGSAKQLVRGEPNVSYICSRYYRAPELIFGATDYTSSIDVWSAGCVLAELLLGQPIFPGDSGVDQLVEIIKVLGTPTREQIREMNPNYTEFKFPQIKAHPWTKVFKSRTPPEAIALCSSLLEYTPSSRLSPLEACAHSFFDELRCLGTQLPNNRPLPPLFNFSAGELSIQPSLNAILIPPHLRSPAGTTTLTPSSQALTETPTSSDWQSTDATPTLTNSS
How it was run: as §1

GSK3b (GST-full length GSK3b), sequence (P49841 whole entry): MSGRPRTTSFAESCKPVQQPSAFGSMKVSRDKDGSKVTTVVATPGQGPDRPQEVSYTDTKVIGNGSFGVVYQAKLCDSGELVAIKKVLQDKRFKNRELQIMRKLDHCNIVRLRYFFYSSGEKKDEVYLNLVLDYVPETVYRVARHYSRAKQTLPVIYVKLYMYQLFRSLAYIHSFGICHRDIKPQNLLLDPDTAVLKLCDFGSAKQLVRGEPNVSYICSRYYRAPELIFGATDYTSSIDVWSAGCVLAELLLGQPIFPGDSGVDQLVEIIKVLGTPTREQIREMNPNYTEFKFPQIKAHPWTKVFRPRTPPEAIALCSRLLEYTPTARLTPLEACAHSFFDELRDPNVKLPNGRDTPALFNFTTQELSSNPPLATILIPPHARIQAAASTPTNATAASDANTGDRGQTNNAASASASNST

SMILES | IC50 ([1]; IC50) | IC50 ([2]; IC50) | IC50 [1] | IC50 [2]
CCC1(c2cccc(-c3ccnc(C)c3)c2)C2=C(CC(C)(C)CC2=O)Nc2n[nH]c(C)c21 (centres unmarked) [Compound 883987] | 0.1 to 1 µM | ≤ 0.1 µM | – | –
CCC1(c2cccc(-c3ccnc(C(F)(F)F)c3)c2)C2=C(CC(C)(C)CC2=O)Nc2n[nH]c(C)c21 (centres unmarked) [Compound 883989] | 0.1 to 1 µM | ≤ 0.1 µM | – | –
CCC1(c2cccc(-c3ccnc(N(C)C)c3)c2)C2=C(CC(C)(C)CC2=O)Nc2n[nH]c(C)c21 (centres unmarked) [Compound 883990] | 0.1 to 1 µM | ≤ 0.1 µM | – | –
CCC1(c2cccc(-c3ccncc3C)c2)C2=C(CC(C)(C)CC2=O)Nc2n[nH]c(C)c21 (centres unmarked) [Compound 883991] | ≤ 0.1 µM | ≤ 0.1 µM | – | –
CCC1(c2cccc(-c3ccnn3C)c2)C2=C(CC(C)(C)CC2=O)Nc2n[nH]c(C)c21 (centres unmarked) [Compound 883992] | ≤ 0.1 µM | ≤ 0.1 µM | – | –
CCC1(c2cccc(-c3cnn(C)c3C)c2)C2=C(CC(C)(C)CC2=O)Nc2n[nH]c(C)c21 (centres unmarked) [Compound 883993] | ≤ 0.1 µM | ≤ 0.1 µM | – | –
CCC1(c2cccc(-c3cn[nH]c3)c2)C2=C(CC(C)(C)CC2=O)Nc2n[nH]c(C)c21 (centres unmarked) [Compound 883994] | ≤ 0.1 µM | ≤ 0.1 µM | – | –
CCC1(c2cccc(-c3c(C)nn(C)c3C)c2)C2=C(CC(C)(C)CC2=O)Nc2n[nH]c(C)c21 (centres unmarked) [Compound 883995] | ≤ 0.1 µM | ≤ 0.1 µM | – | –
CCC1(c2cccc(-c3cnn(CCOC)c3)c2)C2=C(CC(C)(C)CC2=O)Nc2n[nH]c(C)c21 (centres unmarked) [Compound 883996] | 0.1 to 1 µM | ≤ 0.1 µM | – | –
CCC1(c2cccc(-c3ccn(C)n3)c2)C2=C(CC(C)(C)CC2=O)Nc2n[nH]c(C)c21 (centres unmarked) [Compound 883999] | ≤ 0.1 µM | ≤ 0.1 µM | – | –
CCC1(c2cccc(-c3cncn3C)c2)C2=C(CC(C)(C)CC2=O)Nc2n[nH]c(C)c21 (centres unmarked) [Compound 884001] | ≤ 0.1 µM | ≤ 0.1 µM | – | –
CCC1(c2cccc(-c3cnn4c3CCCC4)c2)C2=C(CC(C)(C)CC2=O)Nc2n[nH]c(C)c21 (centres unmarked) [Compound 884002] | ≤ 0.1 µM | ≤ 0.1 µM | – | –
CCC1(c2cccc(-c3cn(C)nc3C)c2)C2=C(CC(C)(C)CC2=O)Nc2n[nH]c(C)c21 (centres unmarked) [Compound 884003] | ≤ 0.1 µM | ≤ 0.1 µM | – | –
CC1(C)CC(=O)C2=C(C1)Nc1n[nH]cc1[C@]21C[C@@H](n2cccn2)C1 [Compound 884004] | – | – | ≤ 0.1 µM | ≤ 0.1 µM
CC1(C)CC(=O)C2=C(C1)Nc1n[nH]cc1[C@]21C[C@H](n2cccn2)C1 [Compound 884005] | – | – | ≤ 0.1 µM | ≤ 0.1 µM
CC(C)[C@@H]1C[C@@]2(CCO1)C1=C(CC(C)(C)CC1=O)Nc1n[nH]cc12 [Compound 884013] | > 5 µM | 1 to 5 µM | – | –
CC(C)[C@H]1C[C@]2(CCO1)C1=C(CC(C)(C)CC1=O)Nc1n[nH]cc12 [Compound 884014] | > 5 µM | 1 to 5 µM | – | –
CC[C@]1(C)C2=C(CC(C)(C)CC2=O)Nc2n[nH]cc21 [Compound 884019] | 1 to 5 µM | 0.1 to 1 µM | – | –
CC[C@]1(C)C2=C(CC(C)(C)CC2=O)Nc2n[nH]cc21 [Compound 884020] | > 5 µM | > 5 µM | – | –
CC1(C)CC(=O)C2=C(C1)Nc1n[nH]cc1[C@]21CCO[C@@H](C(F)(F)F)C1 [Compound 884021] | – | – | 0.1 to 1 µM | 0.1 to 1 µM

SMILES | IC50 ([1]; IC50) | IC50 ([2]; IC50) | IC50 [1] | IC50 [2]
CC1(C)CC(=O)C2=C(C1)Nc1n[nH]cc1[C@@]21CCO[C@H](C(F)(F)F)C1 [Compound 884022] | – | – | 0.1 to 1 µM | 0.1 to 1 µM
CC1(C)CC(=O)C2=C(C1)Nc1n[nH]cc1[C@]21CCO[C@H](C(F)(F)F)C1 [Compound 884023] | > 5 µM | 1 to 5 µM | – | –
CC1(C)CC(=O)C2=C(C1)Nc1n[nH]cc1[C@@]21CCO[C@@H](C(F)(F)F)C1 [Compound 884024] | > 5 µM | 1 to 5 µM | – | –
CC1(C)CCC2(CC1)C1=C(CC(C)(C)CC1=O)Nc1n[nH]cc12 [Compound 884107] | – | – | 0.1 to 1 µM | ≤ 0.1 µM
CCN(C(C)=O)c1cccc(C2(CC)C3=C(CC(C)(C)CC3=O)Nc3n[nH]cc32)c1 (centres unmarked) [Compound 884109] | ≤ 0.1 µM | ≤ 0.1 µM | – | –
CCC1(c2cccc(N(Cc3ccccc3)C(C)=O)c2)C2=C(CC(C)(C)CC2=O)Nc2n[nH]cc21 (centres unmarked) [Compound 884110] | ≤ 0.1 µM | ≤ 0.1 µM | – | –
O=C1CCCC2=C1C1(CCOCC1)c1c[nH]nc1N2 [Compound 884111] | > 5 µM | 1 to 5 µM | – | –
CC1CC(=O)C2=C(C1)Nc1n[nH]cc1C21CCOCC1 (centres unmarked) [Compound 884112] | 0.1 to 1 µM | 0.1 to 1 µM | – | –
C[C@@H]1C[C@H](C)C[C@@]2(C1)C1=C(CC(C)(C)CC1=O)Nc1n[nH]cc12 [Compound 884113] | – | – | 1 to 5 µM | 0.1 to 1 µM
C[C@@H]1C[C@H](C)C[C@]2(C1)C1=C(CC(C)(C)CC1=O)Nc1n[nH]cc12 [Compound 884114] | – | – | 0.1 to 1 µM | 0.1 to 1 µM
CCC1(c2cccc(N3CCCCC3)c2)C2=C(CC(C)(C)CC2=O)Nc2n[nH]c(C)c21 (centres unmarked) [Compound 884115] | 0.1 to 1 µM | 0.1 to 1 µM | – | –
CO[C@H]1CC[C@]2(CC1)C1=C(CC(C)(C)CC1=O)Nc1n[nH]cc12 [Compound 884119] | – | – | 0.1 to 1 µM | ≤ 0.1 µM
CO[C@H]1CC[C@@]2(CC1)C1=C(CC(C)(C)CC1=O)Nc1n[nH]cc12 [Compound 884120] | – | – | 0.1 to 1 µM | 0.1 to 1 µM
CCC1(c2cccc(N3CCCCCC3)c2)C2=C(CC(C)(C)CC2=O)Nc2n[nH]cc21 (centres unmarked) [Compound 885088] | 0.1 to 1 µM | 0.1 to 1 µM | – | –
CCC1(c2cccc(N3CCCC3C)c2)C2=C(CC(C)(C)CC2=O)Nc2n[nH]cc21 (centres unmarked) [Compound 885204] | 0.1 to 1 µM | ≤ 0.1 µM | – | –
CCN(c1cccnc1)c1cccc(C2(CC)C3=C(CC(C)(C)CC3=O)Nc3n[nH]cc32)c1 (centres unmarked) [Compound 885331] | ≤ 0.1 µM | ≤ 0.1 µM | – | –
CCC1(c2cccc(N(c3cccnc3)C(C)C)c2)C2=C(CC(C)(C)CC2=O)Nc2n[nH]cc21 (centres unmarked) [Compound 885344] | ≤ 0.1 µM | ≤ 0.1 µM | – | –
CCN(c1cccc(C2(CC)C3=C(CC(C)(C)CC3=O)Nc3n[nH]cc32)c1)c1cccnc1C (centres unmarked) [Compound 885367] | 1 to 5 µM | 0.1 to 1 µM | – | –
CCC1(c2cccc(N(C)c3cnn(C)c3)c2)C2=C(CC(C)(C)CC2=O)Nc2n[nH]cc21 (centres unmarked) [Compound 885382] | 1 to 5 µM | 0.1 to 1 µM | – | –
CC[C@]1(c2cccc([C@H]3CCOC3)c2)C2=C(CC(C)(C)CC2=O)Nc2n[nH]cc21 [Compound 889558] | 0.1 to 1 µM | ≤ 0.1 µM | – | –

SMILES | IC50 ([1]; IC50) | IC50 ([2]; IC50) | IC50 [1] | IC50 [2]
CCC1(c2cccc(C3CCOC3)c2)C2=C(CC(C)(C)CC2=O)Nc2n[nH]cc21 (centres unmarked) [Compound 889565] | 1 to 5 µM | 0.1 to 1 µM | – | –
CC1(C)CC(=O)C2=C(C1)Nc1n[nH]cc1C21CSC1 [Compound 889567] | – | – | 0.1 to 1 µM | ≤ 0.1 µM
CC1(C)CC(=O)C2=C(C1)Nc1n[nH]cc1C21CN(C(=O)OCc2ccccc2)C1 [Compound 889568] | – | – | 1 to 5 µM | 0.1 to 1 µM
CC1(C)CC(=O)C2=C(C1)Nc1n[nH]cc1C21COC1 [Compound 889569] | – | – | 0.1 to 1 µM | 0.1 to 1 µM
CC1(C)CC(=O)C2=C(C1)Nc1n[nH]cc1C2(CO)CO [Compound 889570] | > 5 µM | > 5 µM | – | –
CC1(C)CC(=O)C2=C(C1)Nc1n[nH]cc1C21CCCNCC1 (centres unmarked) [Compound 889571] | > 5 µM | > 5 µM | – | –
O=C1CC(C(F)(F)F)CC2=C1C1(CCOCC1)c1c[nH]nc1N2 (centres unmarked) [Compound 889572] | 0.1 to 1 µM | 0.1 to 1 µM | – | –
O=C1CC2(CCOC2)CC2=C1C1(CCOCC1)c1c[nH]nc1N2 (centres unmarked) [Compound 889573] | 0.1 to 1 µM | ≤ 0.1 µM | – | –
CC1(C)CC(=O)C2=C(C1)Nc1n[nH]cc1C21CCCN(CC(F)F)CC1 (centres unmarked) [Compound 889574] | – | – | 0.1 to 1 µM | 0.1 to 1 µM
CC(=O)N1CCCC2(CC1)C1=C(CC(C)(C)CC1=O)Nc1n[nH]cc12 (centres unmarked) [Compound 889575] | 1 to 5 µM | 0.1 to 1 µM | – | –
CC1(C)CC(=O)C2=C(C1)Nc1n[nH]cc1C21CCCN(CC(F)(F)F)CC1 (centres unmarked) [Compound 889576] | – | – | 0.1 to 1 µM | 0.1 to 1 µM
CC1(C)CC(=O)C2=C(C1)Nc1n[nH]cc1C21CCCN(C(=O)c2ccccc2)CC1 (centres unmarked) [Compound 889577] | 1 to 5 µM | 1 to 5 µM | – | –
CC1(C)CC(=O)C2=C(C1)Nc1n[nH]cc1C21CCCN(S(=O)(=O)c2ccccc2)CC1 (centres unmarked) [Compound 889578] | – | – | ≤ 0.1 µM | ≤ 0.1 µM
CCC1(c2cccc(S(=O)(=O)CC)c2)C2=C(CC(C)(C)CC2=O)Nc2n[nH]cc21 (centres unmarked) [Compound 889579] | ≤ 0.1 µM | ≤ 0.1 µM | – | –
CCC1(c2cccc(N3CCOCC3)c2)C2=C(CC(C)(C)CC2=O)Nc2n[nH]c(C)c21 (centres unmarked) [Compound 889582] | 1 to 5 µM | 0.1 to 1 µM | – | –
CC(=O)N1CC[C@@]2(C1)C1=C(CC(C)(C)CC1=O)Nc1n[nH]cc12 [Compound 889583] | > 5 µM | 1 to 5 µM | – | –
CC(=O)N1CC[C@]2(C1)C1=C(CC(C)(C)CC1=O)Nc1n[nH]cc12 [Compound 889584] | 1 to 5 µM | 0.1 to 1 µM | – | –
CCC1(c2cccc(N3CCC3)c2)C2=C(CC(C)(C)CC2=O)Nc2n[nH]cc21 (centres unmarked) [Compound 889631] | 0.1 to 1 µM | 0.1 to 1 µM | – | –
